# Measured values as given in patent US11311543B2, “Compositions and methods for inhibiting PTPN22” (YALE UNIVERSITY, priority 2016, dated 2022).
# System: PTPN22
# Test: PTPN22 expression by western blot in shRNA-transduced RAMOS B cell line
# Format: cell-based
# Conditions: human RAMOS B cell line, GFP+ shRNA+ vs GFP-
# Procedure: FIG. 10A depicts flow cytometry analysis of Ramos B cells transduction efficiency. Ramos B cells were transduced with three different GFP-tagged shRNA PTPN22 expressing lentiviruses and probed for GFP expression. […] Percentage of knock-down is indicated. FIG. 10B depicts the frequencies of polyreactive new emigrant B cells from sorted GFP− fractions were determined. […] For each B-cell fraction, the frequency of reactive (filled area) and non-reactive (open area) clones is summarized in pie charts with the total number of clones tested indicated in the center. FIG. 10C depicts the frequencies of HEp-2 reactive new emigrant B cells from sorted GFP− fractions were determined. […] For each B-cell fraction, the frequency of reactive (filled area) and non-reactive (open area) clones is summarized in pie charts with the total number of clones tested indicated in the center. FIG. 10D depicts the frequencies of antinuclear new emigrant B cells are compared between GFP− and GFP+ shRNA+ new emigrant B cells. […]
# Total cell lysates were separated by SDS page, transferred to PVDF membranes, probed with mouse anti-PTPN22 (Invitrogen) and detected by chemiluminescence (Amersham ECL Prime Western Blotting detection Reagent) using a GBox documentation system (Syngene). For quantification, blots were stripped with stripping buffer (Pierce) and reprobed with a mouse anti-β-Actin antibody (Sigma-Aldrich).
substance,measurement,value
"#3: shRNA targeting human PTPN22, 5′-AAGAATCCACCTGACTTCC-3′",inhibition of PTPN22 expression detected by western blot,about 80%
